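Test compounds were applied to cells in 96-well plates for 48 hours at 5 doses. GI50: concentration for 50% inhibition of growth.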 Activity calls are given as the source filed them. Cut-off read from the data, not from the text of the source: active = GI50 up to about 1.1 µM and inactive = higher.
What was measured:
Assay in all cases: NCI anticancer screen, dose series, 48 h
NCI-H23 = tested on: NCI-H23
OVCAR-3 = tested on: OVCAR-3
NCI-H226 = tested on: NCI-H226
EKVX = tested on: EKVX
SK-MEL-2 = tested on: SK-MEL-2
HCC 2998 = tested on: HCC 2998
U-251 = tested on: U-251
KM-20L2 = tested on: KM-20L2
NCI-H460 = tested on: NCI-H460
SK-MEL-5 = tested on: SK-MEL-5
RPMI-8226 = tested on: RPMI-8226
SF-295 = tested on: SF-295
IGROV-1 = tested on: IGROV-1
LOX IMVI = tested on: LOX IMVI
A498 = tested on: A498
HCT-15 = tested on: HCT-15
SK-OV-3 = tested on: SK-OV-3
DMS-114 = tested on: DMS-114
NCI-H522 = tested on: NCI-H522
TK-10 = tested on: TK-10
RXF 631 = tested on: RXF 631
MOLT-4 = tested on: MOLT-4
XF498 = tested on: XF498
HT-29 = tested on: HT-29
KM12 = tested on: KM12
UO-31 = tested on: UO-31
M14 = tested on: M14
SNB-78 = tested on: SNB-78
SF-539 = tested on: SF-539
CAKI-1 = tested on: CAKI-1
COLO 205 = tested on: COLO 205
HCT-116 = tested on: HCT-116
M19-MEL = tested on: M19-MEL
SNB-19 = tested on: SNB-19
HOP-18 = tested on: HOP-18
K562 = tested on: K562
SF-268 = tested on: SF-268
ACHN = tested on: ACHN
SNB-75 = tested on: SNB-75
OVCAR-5 = tested on: OVCAR-5
HOP-62 = tested on: HOP-62
CCRF-CEM = tested on: CCRF-CEM
A549 = tested on: A549
DMS-273 = tested on: DMS-273
OVCAR-8 = tested on: OVCAR-8
SK-MEL-28 = tested on: SK-MEL-28
DLD-1 = tested on: DLD-1
Malme-3M = tested on: Malme-3M
UACC-257 = tested on: UACC-257
OVCAR-4 = tested on: OVCAR-4
SR = tested on: SR
HOP-92 = tested on: HOP-92
LXFL 529 = tested on: LXFL 529
HL-60 = tested on: HL-60
786-0 = tested on: 786-0
UACC-62 = tested on: UACC-62
SN12C = tested on: SN12C
SW-620 = tested on: SW-620
RXF 393 = tested on: RXF 393

Q: What does the source list for `CC[C@@H](C(=O)[C@@H](C)[C@@H](O)[C@H](C)CCc1ccc(C)c(O)c1C(=O)O)[C@H]1O[C@](CC)([C@H]2CC[C@](O)(CC)[C@H](C)O2)C[C@@H]1C` [LASALOCID A SODIUM]?
A: GI50 (NCI-H23): 1.39 µM (inactive); GI50 (OVCAR-3): 0.637 µM (active); GI50 (NCI-H226): 3.05 µM (inactive); GI50 (EKVX): 2.16 µM (inactive); GI50 (SK-MEL-2): 1.85 µM (inactive); GI50 (HCC 2998): 1.05 µM (active); GI50 (U-251): 1.34 µM (inactive); GI50 (KM-20L2): 1.78 µM (inactive); GI50 (NCI-H460): 2.04 µM (inactive); GI50 (SK-MEL-5): 1.66 µM (inactive); GI50 (RPMI-8226): 1.2 µM (inactive); GI50 (SF-295): 1.56 µM (inactive); GI50 (IGROV-1): 2.88 µM (inactive); GI50 (LOX IMVI): 2.77 µM (inactive); GI50 (A498): 0.573 µM (active); GI50 (HCT-15): 3.19 µM; GI50 (SK-OV-3): 2.92 µM (inactive); GI50 (DMS-114): 0.946 µM (active); GI50 (NCI-H522): 1.01 µM (active); GI50 (TK-10): 2.79 µM (inactive); GI50 (RXF 631): 0.741 µM (active); GI50 (MOLT-4): 1.1 µM (active); GI50 (XF498): 1.25 µM (inactive); GI50 (HT-29): 1.06 µM (active); GI50 (KM12): 1.84 µM (inactive); GI50 (UO-31): 3.17 µM (inactive); GI50 (M14): 3.31 µM (inactive); GI50 (SNB-78): 3.13 µM (inactive); GI50 (SF-539): 1.15 µM (inactive); GI50 (CAKI-1): 1.84 µM (inactive); GI50 (COLO 205): 1.1 µM (active); GI50 (HCT-116): 1.48 µM (inactive); GI50 (M19-MEL): 1.65 µM (inactive); GI50 (SNB-19): 1.3 µM (inactive); GI50 (HOP-18): 3.08 µM (inactive); GI50 (K562): 0.664 µM (active); GI50 (SF-268): 2.21 µM (inactive); GI50 (ACHN): 2.64 µM (inactive); GI50 (SNB-75): 0.92 µM (active); GI50 (OVCAR-5): 6.47 µM (inactive); GI50 (HOP-62): 1.38 µM (inactive); GI50 (CCRF-CEM): 0.695 µM (active); GI50 (A549): 2.06 µM (inactive); GI50 (DMS-273): 1.71 µM (inactive); GI50 (OVCAR-8): 2.3 µM (inactive); GI50 (SK-MEL-28): 1.3 µM (inactive); GI50 (DLD-1): 3.61 µM (inactive); GI50 (Malme-3M): 1.05 µM (active); GI50 (UACC-257): 2.99 µM (inactive); GI50 (OVCAR-4): 3.23 µM (inactive); GI50 (SR): 1.12 µM (inactive); GI50 (HOP-92): 1.69 µM (inactive); GI50 (LXFL 529): 1.18 µM (inactive); GI50 (HL-60): 0.348 µM (active); GI50 (786-0): 2.9 µM (inactive); GI50 (UACC-62): 1.81 µM (inactive); GI50 (SN12C): 1.91 µM (inactive); GI50 (SW-620): 2.33 µM (inactive)

Q: Which GI50 (NCI-H23) does the source give for `Oc1cc2cc(-c3ccccc3)[nH]c2c2ccccc12` here?
A: The GI50 was 15 µM (inactive).

Q: And the GI50 (OVCAR-3)?
A: The GI50 was 16.3 µM (inactive).

Q: And the GI50 (NCI-H226)?
A: Its GI50 is > 100 µM (inactive).

Q: What about the GI50 (EKVX) of the same compound?
A: The GI50 was > 48.9 µM (inactive).

Q: What about the GI50 (SK-MEL-2) of the same compound?
A: Its GI50 is 20.3 µM (inactive).

Q: And the GI50 (HCC 2998)?
A: The GI50 was 49.5 µM (inactive).

Q: And the GI50 (U-251)?
A: The GI50 was 32.1 µM (inactive).

Q: And the GI50 (KM-20L2)?
A: Its GI50 is > 96.2 µM (inactive).

Q: What about the GI50 (RXF 393) of the same compound?
A: Its GI50 is 27.8 µM (inactive).

Q: And the GI50 (NCI-H460)?
A: Its GI50 is 24 µM (inactive).

Q: And the GI50 (SK-MEL-5)?
A: The GI50 was 14.1 µM (inactive).

Q: And the GI50 (RPMI-8226)?
A: The GI50 was 16.6 µM (inactive).

Q: What about the GI50 (SF-295) of the same compound?
A: Its GI50 is 7.1 µM (inactive).

Q: And the GI50 (IGROV-1)?
A: Its GI50 is 35.6 µM (inactive).

Q: What about the GI50 (LOX IMVI) of the same compound?
A: The GI50 was 16.1 µM (inactive).

Q: What about the GI50 (A498) of the same compound?
A: The GI50 was > 100 µM (inactive).

Q: What about the GI50 (HCT-15) of the same compound?
A: Its GI50 is 27.1 µM.

Q: And the GI50 (SK-OV-3)?
A: Its GI50 is > 77.8 µM (inactive).

Q: What about the GI50 (DMS-114) of the same compound?
A: Its GI50 is 13.6 µM (inactive).

Q: What about the GI50 (NCI-H522) of the same compound?
A: The GI50 was 15.3 µM (inactive).

Q: And the GI50 (TK-10)?
A: The GI50 was > 100 µM (inactive).

Q: And the GI50 (RXF 631)?
A: The GI50 was 22.7 µM (inactive).

Q: What about the GI50 (MOLT-4) of the same compound?
A: The GI50 was 39.9 µM (inactive).

Q: And the GI50 (XF498)?
A: The GI50 was 1.63 µM (inactive).

Q: What about the GI50 (HT-29) of the same compound?
A: Its GI50 is 68.9 µM (inactive).

Q: What about the GI50 (KM12) of the same compound?
A: The GI50 was 27.4 µM (inactive).

Q: And the GI50 (UO-31)?
A: The GI50 was 19.2 µM (inactive).

Q: What about the GI50 (M14) of the same compound?
A: Its GI50 is 20.3 µM (inactive).

Q: And the GI50 (SNB-78)?
A: The GI50 was 54.6 µM (inactive).

Q: What about the GI50 (SF-539) of the same compound?
A: The GI50 was 28.6 µM (inactive).

Q: And the GI50 (CAKI-1)?
A: Its GI50 is 18.5 µM (inactive).

Q: And the GI50 (COLO 205)?
A: Its GI50 is 10.4 µM (inactive).

Q: What about the GI50 (HCT-116) of the same compound?
A: Its GI50 is 17.1 µM (inactive).

Q: And the GI50 (M19-MEL)?
A: The GI50 was 15.5 µM (inactive).

Q: And the GI50 (SNB-19)?
A: The GI50 was 21.7 µM (inactive).

Q: And the GI50 (HOP-18)?
A: The GI50 was 32.7 µM (inactive).

Q: What about the GI50 (K562) of the same compound?
A: The GI50 was 26.7 µM (inactive).

Q: And the GI50 (SF-268)?
A: The GI50 was 47.1 µM (inactive).

Q: And the GI50 (ACHN)?
A: Its GI50 is 25 µM (inactive).

Q: What about the GI50 (SNB-75) of the same compound?
A: The GI50 was 33 µM (inactive).

Q: What about the GI50 (OVCAR-5) of the same compound?
A: Its GI50 is > 100 µM (inactive).

Q: What about the GI50 (HOP-62) of the same compound?
A: The GI50 was > 85.9 µM (inactive).

Q: And the GI50 (CCRF-CEM)?
A: Its GI50 is 28.6 µM (inactive).

Q: And the GI50 (A549)?
A: The GI50 was 30.1 µM (inactive).

Q: What about the GI50 (DMS-273) of the same compound?
A: The GI50 was 0.592 µM (active).

Q: And the GI50 (OVCAR-8)?
A: Its GI50 is 32.7 µM (inactive).

Q: And the GI50 (SK-MEL-28)?
A: The GI50 was 42.3 µM (inactive).

Q: And the GI50 (DLD-1)?
A: Its GI50 is 32 µM (inactive).

Q: And the GI50 (Malme-3M)?
A: Its GI50 is 19.9 µM (inactive).

Q: What about the GI50 (UACC-257) of the same compound?
A: Its GI50 is 16 µM (inactive).

Q: And the GI50 (OVCAR-4)?
A: Its GI50 is 33.4 µM (inactive).

Q: What about the GI50 (SR) of the same compound?
A: Its GI50 is > 57 µM (inactive).

Q: And the GI50 (HOP-92)?
A: The GI50 was 23.8 µM (inactive).

Q: And the GI50 (LXFL 529)?
A: The GI50 was 24.5 µM (inactive).

Q: What about the GI50 (HL-60) of the same compound?
A: Its GI50 is 8.15 µM (inactive).

Q: What about the GI50 (786-0) of the same compound?
A: Its GI50 is > 59 µM (inactive).

Q: What about the GI50 (UACC-62) of the same compound?
A: The GI50 was 15.2 µM (inactive).

Q: And the GI50 (SN12C)?
A: Its GI50 is 28.8 µM (inactive).

Q: And the GI50 (SW-620)?
A: The GI50 was 34.4 µM (inactive).

— ChEMBL document CHEMBL1201862, “PubChem BioAssay data set” (2004)
